Test results from ChEMBL document CHEMBL4837240 (J Med Chem, 2021).
Activity calls are given as the source filed them. No cut-off for these calls is given here.

Legend:
[1] = Toxicity in BALB/c mouse xenografted with MDA-MB-231 cells assessed as ALT level in blood at 300 mg/kg, po; assay type: organism-based; settings: in vivo
MDA-MB-436 [2] = assay: Induction of apoptosis in human MDA-MB-436 cells assessed as downregulation of Bcl2 expression up to 10 uM incubated for 24 hrs by Western blotting analysis; assay type: functional, cell-based; settings: dose microM <=10, time 24.0 hrs
[3] = biological target: T1, Tyrosine-protein kinase BTK (Homo sapiens, UniProt Q06187); assay: Inhibition of human BTK assessed as residual kinase activity at 1 uM relative to control
[4] = biological target: T2, Vascular endothelial growth factor receptor 1 (Homo sapiens, UniProt P17948); assay: Inhibition of human FLT1/VEGFR1 assessed as residual kinase activity at 1 uM relative to control
[5] = biological target: T1, Tyrosine-protein kinase BTK; assay: Inhibition of human BTK
[6] = biological target: Vascular endothelial growth factor receptor 2 (Homo sapiens, UniProt P35968); assay: Inhibition of human KDR/VEGFR2
[7] = biological target: T2, Vascular endothelial growth factor receptor 1; assay: Inhibition of human FLT1/VEGFR1
[8] = Antiproliferative activity against VEGF-C-induced human dermal lymphatic endothelial cells assessed as cell viability incubated for 48 hrs by CCK-8 assay; assay type: functional, tissue-based; settings: HDLEC
HDLEC = assay: Anti-lymphangiogenic activity against human dermal lymphatic endothelial cells assessed as inhibition of VEGF-C-mediated tube formation at 100 nM incubated for 12 hrs by inverted microscopy; assay type: functional, tissue-based
MDA-MB-436 [9] = assay: Induction of apoptosis in human MDA-MB-436 cells assessed as apoptotic cells at 5 uM incubated for 48 hrs by flow cytometry; assay type: functional
MDA-MB-436 [10] = assay: Induction of apoptosis in human MDA-MB-436 cells assessed as upregulation of Bax expression up to 10 uM incubated for 24 hrs by Western blotting analysis; assay type: functional, cell-based; settings: dose microM <=10, time 24.0 hrs
MDA-MB-231 [11] = assay: Upregulation of E-cadherin protein expression in human MDA-MB-231 cells up to 10 uM incubated for 24 hrs by Western blot analysis; assay type: functional, cell-based; settings: dose microM <=10, time 24.0 hrs
MDA-MB-231 [12] = assay: Downregulation of MMP2 protein expression in human MDA-MB-231 cells up to 10 uM incubated for 24 hrs by Western blot analysis; assay type: functional, cell-based; settings: dose microM <=10, time 24.0 hrs
[13] = biological target: T3, Vascular endothelial growth factor receptor 3 (Homo sapiens, UniProt P35916); assay: Inhibition of VEGFR3 in human MDA-MB-436 cells assessed as inhibition of STAT5 phosphorylation at 2.5 uM incubated for 24 hrs by Western blot analysis; assay type: cell-based
[14] = biological target: T3, Vascular endothelial growth factor receptor 3; assay: Inhibition of VEGFR3 in human MDA-MB-436 cells assessed as inhibition of ERK1/2 phosphorylation at 2.5 uM incubated for 24 hrs by Western blot analysis; assay type: cell-based
[15] = Half life in Sprague-Dawley rat at 10 mg/kg, po by LC-MS analysis; assay type: ADME, organism-based; settings: in vivo
[16] = Toxicity in BALB/c mouse xenografted with MDA-MB-231 cells assessed as creatinine level in blood at 300 mg/kg, po; assay type: organism-based; settings: in vivo
[17] = Toxicity in BALB/c mouse xenografted with MDA-MB-231 cells assessed as change in liver at 300 mg/kg, po by hematoxylin and eosin staining based analysis; assay type: organism-based; settings: in vivo
[18] = Toxicity in BALB/c mouse xenografted with MDA-MB-231 cells assessed as change in spleen at 300 mg/kg, po by hematoxylin and eosin staining based analysis; assay type: organism-based; settings: in vivo
Mus musculus = assay: Decrease in E-cadherin level in BALB/c mouse xenografted with MDA-MB-231 cells in tumor tissue at 25 mg/kg, po by immunohistochemistry analysis; assay type: functional, organism-based
[19] = biological target: Vascular endothelial growth factor receptor 3 (Mus musculus) (UniProt P35917); assay: In vivo inhibition of VEGFR3 phosphorylation in BALB/c mouse xenografted with MDA-MB-231 cells at 25 mg/kg, po by immunohistochemistry analysis; assay type: functional, organism-based
[20] = biological target: Vascular endothelial growth factor receptor 3 (Mus musculus) (UniProt P35917); assay: In vivo inhibition of VEGFR3 phosphorylation in BALB/c mouse xenografted with MDA-MB-231 cells assessed as decrease in ERK1/2 phosphorylation at 25 mg/kg, po by immunohistochemistry analysis; assay type: functional, organism-based
[21] = biological target: T4, Vascular endothelial growth factor receptor 1 (Mus musculus) (UniProt P35969); assay: In vivo inhibition of VEGFR1 phosphorylation in BALB/c mouse xenografted with MDA-MB-231 cells at 25 mg/kg, po by immunohistochemistry analysis; assay type: functional, organism-based
T4 sequence (whole entry): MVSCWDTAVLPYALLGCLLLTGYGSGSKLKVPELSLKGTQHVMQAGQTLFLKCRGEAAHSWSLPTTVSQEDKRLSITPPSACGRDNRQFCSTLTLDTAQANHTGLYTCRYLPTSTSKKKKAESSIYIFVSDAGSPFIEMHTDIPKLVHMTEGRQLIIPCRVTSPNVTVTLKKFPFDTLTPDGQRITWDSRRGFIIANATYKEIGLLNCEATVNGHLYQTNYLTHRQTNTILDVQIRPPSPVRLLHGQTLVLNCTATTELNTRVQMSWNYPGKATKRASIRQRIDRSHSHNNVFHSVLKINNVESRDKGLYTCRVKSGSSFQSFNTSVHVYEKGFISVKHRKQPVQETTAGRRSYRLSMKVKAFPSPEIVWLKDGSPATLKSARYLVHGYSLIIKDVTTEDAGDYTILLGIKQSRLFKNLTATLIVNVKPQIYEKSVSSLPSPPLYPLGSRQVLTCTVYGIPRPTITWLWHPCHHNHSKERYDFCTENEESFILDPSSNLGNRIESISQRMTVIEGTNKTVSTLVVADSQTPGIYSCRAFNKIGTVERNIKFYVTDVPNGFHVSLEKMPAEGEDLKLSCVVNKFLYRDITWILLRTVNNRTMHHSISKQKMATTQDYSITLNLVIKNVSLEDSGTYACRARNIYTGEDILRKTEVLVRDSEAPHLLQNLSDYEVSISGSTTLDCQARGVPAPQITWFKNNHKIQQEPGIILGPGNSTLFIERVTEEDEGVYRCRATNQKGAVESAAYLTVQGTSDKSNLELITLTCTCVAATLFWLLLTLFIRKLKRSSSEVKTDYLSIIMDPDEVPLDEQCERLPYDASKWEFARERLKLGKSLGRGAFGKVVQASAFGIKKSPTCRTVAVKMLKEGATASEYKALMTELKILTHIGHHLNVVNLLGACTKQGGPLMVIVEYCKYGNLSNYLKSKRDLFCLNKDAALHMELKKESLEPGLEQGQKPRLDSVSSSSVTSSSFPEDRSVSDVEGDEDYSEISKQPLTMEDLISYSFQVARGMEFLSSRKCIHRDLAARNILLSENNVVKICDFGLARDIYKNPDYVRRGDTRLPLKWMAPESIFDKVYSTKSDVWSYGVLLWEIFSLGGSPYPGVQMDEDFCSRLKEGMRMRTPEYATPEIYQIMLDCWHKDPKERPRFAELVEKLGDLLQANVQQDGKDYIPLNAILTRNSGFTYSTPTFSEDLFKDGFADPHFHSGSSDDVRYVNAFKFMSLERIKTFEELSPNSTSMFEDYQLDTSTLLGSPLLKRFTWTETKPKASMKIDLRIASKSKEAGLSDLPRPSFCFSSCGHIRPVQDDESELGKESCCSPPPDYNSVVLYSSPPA

T3 sequence (P35916 whole entry): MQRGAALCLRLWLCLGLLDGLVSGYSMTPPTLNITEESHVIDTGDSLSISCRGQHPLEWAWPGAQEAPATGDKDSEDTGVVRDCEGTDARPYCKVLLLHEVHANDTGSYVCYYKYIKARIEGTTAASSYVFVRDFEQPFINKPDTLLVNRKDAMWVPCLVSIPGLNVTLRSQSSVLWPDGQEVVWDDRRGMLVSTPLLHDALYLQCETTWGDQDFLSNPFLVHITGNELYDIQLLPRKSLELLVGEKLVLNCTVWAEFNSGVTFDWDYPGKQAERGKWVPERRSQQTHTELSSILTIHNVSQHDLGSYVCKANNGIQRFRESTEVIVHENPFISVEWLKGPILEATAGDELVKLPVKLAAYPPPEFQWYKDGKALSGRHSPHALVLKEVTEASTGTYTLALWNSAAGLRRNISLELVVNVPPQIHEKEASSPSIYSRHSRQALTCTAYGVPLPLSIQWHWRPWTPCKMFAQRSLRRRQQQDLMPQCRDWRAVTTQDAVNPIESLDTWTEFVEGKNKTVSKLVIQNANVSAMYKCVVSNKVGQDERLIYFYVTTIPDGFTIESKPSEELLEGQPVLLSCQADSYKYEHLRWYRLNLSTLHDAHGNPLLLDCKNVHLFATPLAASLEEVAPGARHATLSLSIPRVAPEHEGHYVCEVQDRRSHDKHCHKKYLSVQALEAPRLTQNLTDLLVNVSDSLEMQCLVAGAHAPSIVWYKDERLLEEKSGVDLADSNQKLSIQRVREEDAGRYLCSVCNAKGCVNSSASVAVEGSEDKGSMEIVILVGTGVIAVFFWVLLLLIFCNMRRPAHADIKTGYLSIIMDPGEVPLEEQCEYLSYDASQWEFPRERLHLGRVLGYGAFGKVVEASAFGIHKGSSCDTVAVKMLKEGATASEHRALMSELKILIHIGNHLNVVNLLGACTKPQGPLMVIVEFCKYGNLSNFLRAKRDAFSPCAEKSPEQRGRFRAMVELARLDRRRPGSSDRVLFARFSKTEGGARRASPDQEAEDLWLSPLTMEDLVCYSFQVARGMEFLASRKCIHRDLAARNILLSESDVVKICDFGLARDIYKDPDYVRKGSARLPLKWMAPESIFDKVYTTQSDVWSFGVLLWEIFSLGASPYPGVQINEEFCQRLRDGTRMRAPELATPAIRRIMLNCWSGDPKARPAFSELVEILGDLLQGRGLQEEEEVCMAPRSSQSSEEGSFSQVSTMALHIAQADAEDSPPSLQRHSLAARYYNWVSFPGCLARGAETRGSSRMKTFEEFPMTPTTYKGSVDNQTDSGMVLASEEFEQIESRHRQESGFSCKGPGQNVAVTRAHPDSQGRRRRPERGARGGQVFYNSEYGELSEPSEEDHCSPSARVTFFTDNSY
T1 sequence (Q06187 whole entry): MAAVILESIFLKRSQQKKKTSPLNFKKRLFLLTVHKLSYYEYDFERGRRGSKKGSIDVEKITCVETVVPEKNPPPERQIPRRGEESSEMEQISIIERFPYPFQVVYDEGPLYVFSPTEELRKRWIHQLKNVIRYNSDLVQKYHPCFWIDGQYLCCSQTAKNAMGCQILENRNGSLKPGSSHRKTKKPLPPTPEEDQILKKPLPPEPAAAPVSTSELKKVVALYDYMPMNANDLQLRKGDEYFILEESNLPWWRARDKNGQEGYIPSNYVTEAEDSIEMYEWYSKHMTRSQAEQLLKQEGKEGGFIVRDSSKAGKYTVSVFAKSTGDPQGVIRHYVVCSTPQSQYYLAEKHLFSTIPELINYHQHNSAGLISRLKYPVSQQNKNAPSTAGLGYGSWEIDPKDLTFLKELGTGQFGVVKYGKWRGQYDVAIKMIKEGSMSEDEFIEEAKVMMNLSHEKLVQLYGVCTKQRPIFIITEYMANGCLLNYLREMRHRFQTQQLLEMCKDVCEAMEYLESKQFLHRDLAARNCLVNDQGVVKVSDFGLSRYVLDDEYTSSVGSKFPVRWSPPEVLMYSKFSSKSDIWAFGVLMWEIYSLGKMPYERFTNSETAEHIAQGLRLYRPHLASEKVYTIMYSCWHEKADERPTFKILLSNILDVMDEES
T2 sequence (P17948 whole entry): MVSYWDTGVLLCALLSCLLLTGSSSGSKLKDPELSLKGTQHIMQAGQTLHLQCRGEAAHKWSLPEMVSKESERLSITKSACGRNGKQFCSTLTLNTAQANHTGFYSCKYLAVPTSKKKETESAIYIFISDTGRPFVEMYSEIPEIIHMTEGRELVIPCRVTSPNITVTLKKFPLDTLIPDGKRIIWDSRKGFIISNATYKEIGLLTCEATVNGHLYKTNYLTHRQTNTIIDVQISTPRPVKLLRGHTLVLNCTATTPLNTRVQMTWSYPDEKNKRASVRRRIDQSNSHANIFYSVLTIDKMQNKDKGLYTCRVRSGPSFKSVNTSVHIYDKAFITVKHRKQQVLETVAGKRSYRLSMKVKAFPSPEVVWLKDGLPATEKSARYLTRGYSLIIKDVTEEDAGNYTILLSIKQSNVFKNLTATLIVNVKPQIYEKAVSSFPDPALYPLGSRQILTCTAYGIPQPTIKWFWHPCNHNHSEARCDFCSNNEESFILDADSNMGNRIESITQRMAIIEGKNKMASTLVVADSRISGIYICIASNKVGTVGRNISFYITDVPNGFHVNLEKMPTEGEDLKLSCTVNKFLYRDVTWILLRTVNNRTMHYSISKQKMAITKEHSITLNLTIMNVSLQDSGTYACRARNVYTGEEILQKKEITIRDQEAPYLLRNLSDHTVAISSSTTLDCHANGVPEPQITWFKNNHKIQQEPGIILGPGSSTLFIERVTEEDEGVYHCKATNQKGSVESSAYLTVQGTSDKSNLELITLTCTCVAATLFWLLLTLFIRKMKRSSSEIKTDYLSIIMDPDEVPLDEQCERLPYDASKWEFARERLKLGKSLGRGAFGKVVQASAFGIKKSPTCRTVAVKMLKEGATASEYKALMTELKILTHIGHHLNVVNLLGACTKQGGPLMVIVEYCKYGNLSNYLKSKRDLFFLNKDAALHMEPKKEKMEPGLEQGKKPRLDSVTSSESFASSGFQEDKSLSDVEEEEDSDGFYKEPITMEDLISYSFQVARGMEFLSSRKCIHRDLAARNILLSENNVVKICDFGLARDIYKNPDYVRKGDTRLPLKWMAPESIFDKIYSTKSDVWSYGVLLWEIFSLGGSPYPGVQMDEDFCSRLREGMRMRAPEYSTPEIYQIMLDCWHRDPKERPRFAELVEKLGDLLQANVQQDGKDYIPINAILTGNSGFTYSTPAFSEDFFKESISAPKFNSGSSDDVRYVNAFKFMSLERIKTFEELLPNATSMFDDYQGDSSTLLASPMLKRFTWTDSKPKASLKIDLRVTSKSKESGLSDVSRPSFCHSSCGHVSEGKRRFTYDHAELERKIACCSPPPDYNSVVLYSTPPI
Sequence of Vascular endothelial growth factor receptor 3 (Mus musculus) (P35917 whole entry): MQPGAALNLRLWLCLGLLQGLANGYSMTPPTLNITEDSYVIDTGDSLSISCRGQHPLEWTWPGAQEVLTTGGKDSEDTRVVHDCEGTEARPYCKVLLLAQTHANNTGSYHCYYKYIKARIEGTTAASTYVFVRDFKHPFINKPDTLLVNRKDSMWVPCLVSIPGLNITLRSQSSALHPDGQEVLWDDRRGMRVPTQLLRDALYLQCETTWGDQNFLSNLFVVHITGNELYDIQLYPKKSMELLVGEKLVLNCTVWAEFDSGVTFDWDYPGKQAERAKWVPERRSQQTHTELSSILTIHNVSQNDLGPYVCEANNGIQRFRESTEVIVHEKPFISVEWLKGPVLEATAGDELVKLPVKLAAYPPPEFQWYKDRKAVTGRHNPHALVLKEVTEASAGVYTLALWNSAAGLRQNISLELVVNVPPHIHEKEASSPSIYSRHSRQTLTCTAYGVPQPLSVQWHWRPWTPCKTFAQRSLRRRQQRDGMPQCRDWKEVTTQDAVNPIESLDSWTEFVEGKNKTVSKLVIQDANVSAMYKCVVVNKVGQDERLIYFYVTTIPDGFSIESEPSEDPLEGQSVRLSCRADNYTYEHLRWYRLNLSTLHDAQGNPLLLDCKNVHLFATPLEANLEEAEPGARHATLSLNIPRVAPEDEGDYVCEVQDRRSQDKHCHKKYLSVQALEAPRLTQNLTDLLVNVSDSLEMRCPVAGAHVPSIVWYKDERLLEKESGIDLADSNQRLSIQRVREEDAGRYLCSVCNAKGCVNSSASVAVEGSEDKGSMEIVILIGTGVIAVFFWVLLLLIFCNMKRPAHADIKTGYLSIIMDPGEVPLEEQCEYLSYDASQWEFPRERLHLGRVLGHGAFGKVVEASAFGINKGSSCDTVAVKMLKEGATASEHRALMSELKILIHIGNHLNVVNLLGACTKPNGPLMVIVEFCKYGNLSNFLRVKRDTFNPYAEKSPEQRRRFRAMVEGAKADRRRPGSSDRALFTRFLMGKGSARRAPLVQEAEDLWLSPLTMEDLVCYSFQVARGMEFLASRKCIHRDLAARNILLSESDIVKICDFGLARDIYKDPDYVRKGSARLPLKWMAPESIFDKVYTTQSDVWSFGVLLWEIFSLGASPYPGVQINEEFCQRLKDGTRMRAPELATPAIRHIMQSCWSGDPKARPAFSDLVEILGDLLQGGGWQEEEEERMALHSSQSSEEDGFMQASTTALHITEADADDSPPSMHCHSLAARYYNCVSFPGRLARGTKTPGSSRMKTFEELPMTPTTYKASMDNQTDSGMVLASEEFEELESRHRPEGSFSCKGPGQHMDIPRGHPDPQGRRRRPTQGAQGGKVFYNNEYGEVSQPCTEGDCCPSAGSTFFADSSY

CN1CCN(c2ccc(-c3cc4c(N5CCN(C(=O)Nc6ccc(Cl)c(C(F)(F)F)c6)CC5)ncnc4s3)cc2)CC1
Activity [1]: Non-Toxic | Activity (MDA-MB-436 [2]): Active | Activity [3]: 19% | Activity [4]: 97% | IC50 [5]: 718 nM | IC50 [6]: > 10000 nM | IC50 [7]: > 10000 nM | IC50 [8]: 250 nM | Activity (HDLEC): Active | Activity (MDA-MB-436 [9]): 36.7% | Activity (MDA-MB-436 [10]): Active | Activity (MDA-MB-231 [11]): Active | Activity (MDA-MB-231 [12]): Active | inhibition [13]: Active | inhibition [14]: Active | half-life [15]: 16 h | Activity [16]: Non-Toxic | Activity [17]: Non-Toxic | Activity [18]: Non-Toxic | Activity (Mus musculus): Active | Activity [19]: Active | Activity [20]: Active | Activity [21]: inactive
